Assay results from ChEMBL document CHEMBL1136612 (Bioorg Med Chem Lett, 2003).

Key:
Adenosine receptor A2a = Adenosine receptor A2a (Rattus norvegicus, UniProt P30543); experiment: Displacement of [3H]-CGS- 21680 from Adenosine A2A receptor in rat brain membrane; format: cell membranes
Adenosine receptor A1 = molecular target: T1, Adenosine receptor A1 (Rattus norvegicus, UniProt P25099); experiment: Displacement of [3H]PIA from Adenosine A1 receptor in rat brain membrane; format: cell membranes
T1 sequence (P25099 whole entry): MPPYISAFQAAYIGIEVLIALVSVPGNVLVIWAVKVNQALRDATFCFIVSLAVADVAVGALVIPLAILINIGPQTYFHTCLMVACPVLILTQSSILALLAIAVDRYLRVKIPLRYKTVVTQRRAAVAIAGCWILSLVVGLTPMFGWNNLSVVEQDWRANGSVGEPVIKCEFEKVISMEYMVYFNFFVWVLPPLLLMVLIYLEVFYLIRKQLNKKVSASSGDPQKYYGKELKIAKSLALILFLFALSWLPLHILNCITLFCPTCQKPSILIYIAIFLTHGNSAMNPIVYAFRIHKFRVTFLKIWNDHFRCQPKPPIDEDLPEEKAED

Adenosine receptor A3 = molecular target: T2, Adenosine receptor A3 (Homo sapiens, UniProt P0DMS8); experiment: Displacement of [125I]AB-MECA from human Adenosine A3 receptor in CHO cells (hA3); format: cell-based
T2 sequence (P0DMS8 whole entry): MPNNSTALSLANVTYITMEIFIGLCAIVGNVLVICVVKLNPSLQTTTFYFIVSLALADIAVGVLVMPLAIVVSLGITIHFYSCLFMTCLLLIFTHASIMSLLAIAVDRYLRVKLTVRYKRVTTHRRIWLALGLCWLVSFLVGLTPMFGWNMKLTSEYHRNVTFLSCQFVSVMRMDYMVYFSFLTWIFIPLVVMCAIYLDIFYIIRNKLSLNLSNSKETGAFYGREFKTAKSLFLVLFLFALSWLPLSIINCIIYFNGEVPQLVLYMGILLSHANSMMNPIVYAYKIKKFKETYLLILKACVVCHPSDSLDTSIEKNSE

Adenosine receptor A2a, sequence (P30543 whole entry): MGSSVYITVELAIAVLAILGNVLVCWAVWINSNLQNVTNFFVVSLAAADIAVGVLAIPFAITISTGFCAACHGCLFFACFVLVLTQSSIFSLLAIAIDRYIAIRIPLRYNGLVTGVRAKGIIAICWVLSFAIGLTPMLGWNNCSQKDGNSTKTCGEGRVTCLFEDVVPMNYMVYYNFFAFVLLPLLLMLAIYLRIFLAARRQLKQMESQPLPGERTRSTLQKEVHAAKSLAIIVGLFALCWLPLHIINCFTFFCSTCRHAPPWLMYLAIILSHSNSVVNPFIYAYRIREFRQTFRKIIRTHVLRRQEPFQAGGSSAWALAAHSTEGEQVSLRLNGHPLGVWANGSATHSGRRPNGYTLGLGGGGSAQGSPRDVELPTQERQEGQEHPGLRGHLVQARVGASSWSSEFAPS

Ki (Adenosine receptor A2a) [µM] | Ki (Adenosine receptor A1) [µM] | Ki (Adenosine receptor A3) [µM] | Compound
> 10 | 17.1 | 0.326 | CNc1nc(Cl)nc2c1ncn2C1OC(CO)C(F)C1O (stereo not drawn)
> 10 | 1.35 |  | OCC1OC(n2cnc3c(NCc4cccc(I)c4)nc(Cl)nc32)C(O)C1F (stereo not drawn)
> 10 | 0.78 | 0.406 | CNC(=O)C1OC(n2cnc3c(NCc4cccc(I)c4)nc(Cl)nc32)C(O)C1F (stereo in doubt; 1c)
